# Values joined by “and” are separate entries in the source; they are usually repeats but may differ in a detail not shown here. Equal entries are not always repeated.
# Test system: Long Evans rats
# Experiment: Behavioral satiety sequence (BSS)
# Type: in vivo, Long Evans rat
# Source text: The Behavioural Satiety Sequence (BSS) is a technique used to evaluate physiological satiety. It is based on the expression of a sequence of behaviors including eating, grooming, locomotor activity, followed by resting, which are typically observed in rodents post-ingestion (Halford et al, 1998, Pharmacology Biochemistry and Behaviour. 61(2): 159-168). The BSS is a widely used model for determining the effects of novel pharmaceuticals on food intake and measures of satiety in rodents (Oliveira et al, 2011, Revista de Nutrição. 24(4) 619-628), and to discriminate the cause of reduced food intake following pharmacological manipulation. For example, treatments that may reduce food intake by non-specific mechanisms, such as immobility, malaise, and taste adulteration, will disrupt this sequence (Halford et al, 1998, Pharmacology Biochemistry and Behaviour. 61(2): 159-168).
# Specifically, 12 male Long-Evans rats were food-deprived for 22 h with a 2 h feeding period each day. Rats were trained to consume daily food during the 2 h period over 25 days. The testing phase was initiated once the rats consistently consumed 16-18 g of food per day with ≤10% variance in amount of feed consumed. Feeding took place in designated individual boxes in a quiet room separate from the housing room. Continuous remote monitoring via video camera during feeding was used to assess the BSS. Food consumption was measured by weighing the total available food before and after the 2 h feeding window, correcting for spillage. Lorcaserin (1 mg/kg) was included as a reference control (Higgins et al, 2011, Neuropsychopharmacology. 37(5): 1177-1191). Subjects were tested using a repeated-measures, Latin square design with 2-3 days wash-out between treatment cycles.
# On scheduled test days, animals were monitored remotely via video camera during the feeding access period. The occurrence of four mutually exclusive behaviors (eating/drinking, grooming, active, rest) were individually scored. Over the 2 h feeding period, behaviors were assessed every 30 seconds. Scores were compiled into 23 5 min timebins (timebin 24 was removed due to early removal of animals) and the frequency of each behavior within each timebin was calculated to determine a temporal frequency of each measure (Rodgers et al, 2010, Pharmacology Biochemistry and Behaviour. 97: 3-14). Percentage time was plotted for each behavioral sequence in each timebin to compare between treatment groups (Higgins et al, 2011, Neuropsychopharmacology. 37(5): 1177-1191).
# [1] = 3 mg/kg, raw data per animal (LT-1 to LT-12)
# [2] = Compound I-19 0.1 mg/kg, AVG of animals LT-1 to LT-12
# [3] = Compound I-19 0.1 mg/kg, AVG of animals LT-1 to LT-12, 0-0.5 hours
structure (smiles),measurement,setting,value
Clc1ccc(C2(OCC3OCCO3)c3ccccc3C3=NCCN32)cc1 (stereo not drawn) [Compound I-19],"BSS scoring E (eating/drinking), Time Bin 19 (90-95 TOTAL), AVG","3 mg/kg, AVG of LT-1 to LT-12",0.59
same,"BSS scoring E (eating/drinking), Time Bin 20 (95-100 TOTAL), AVG","3 mg/kg, AVG of LT-1 to LT-12",0.62
same,"BSS scoring E (eating/drinking), Time Bin 21 (100-105 TOTAL), AVG","3 mg/kg, AVG of LT-1 to LT-12",0.56
same,"BSS scoring E (eating/drinking), Time Bin 22 (105-110 TOTAL), AVG","3 mg/kg, AVG of LT-1 to LT-12",0.52
same,"BSS scoring E (eating/drinking), Time Bin 23 (110-115 TOTAL), AVG","3 mg/kg, AVG of LT-1 to LT-12",0.58
same,"BSS scoring E (eating/drinking), Time Bin 24 (115-120 TOTAL), AVG","3 mg/kg, AVG of LT-1 to LT-12",0.37
same,"BSS scoring G (grooming), Time Bin 19 (90-95 TOTAL), AVG","3 mg/kg, AVG of LT-1 to LT-12",0.05
same,"BSS scoring G (grooming), Time Bin 20 (95-100 TOTAL), AVG","3 mg/kg, AVG of LT-1 to LT-12",0.04
same,"BSS scoring G (grooming), Time Bin 21 (100-105 TOTAL), AVG","3 mg/kg, AVG of LT-1 to LT-12",0.06
same,"BSS scoring G (grooming), Time Bin 22 (105-110 TOTAL), AVG","3 mg/kg, AVG of LT-1 to LT-12",0.07
same,"BSS scoring G (grooming), Time Bin 23 (110-115 TOTAL), AVG","3 mg/kg, AVG of LT-1 to LT-12",0.02
same,"BSS scoring G (grooming), Time Bin 24 (115-120 TOTAL), AVG","3 mg/kg, AVG of LT-1 to LT-12",0.02
same,"BSS scoring R (resting), Time Bin 19 (90-95 TOTAL), AVG","3 mg/kg, AVG of LT-1 to LT-12",0.18
same,"BSS scoring R (resting), Time Bin 20 (95-100 TOTAL), AVG","3 mg/kg, AVG of LT-1 to LT-12",0.15
same,"BSS scoring R (resting), Time Bin 21 (100-105 TOTAL), AVG","3 mg/kg, AVG of LT-1 to LT-12",0.16
same,"BSS scoring R (resting), Time Bin 22 (105-110 TOTAL), AVG","3 mg/kg, AVG of LT-1 to LT-12",0.22
same,"BSS scoring R (resting), Time Bin 23 (110-115 TOTAL), AVG","3 mg/kg, AVG of LT-1 to LT-12",0.22
same,"BSS scoring R (resting), Time Bin 24 (115-120 TOTAL), AVG","3 mg/kg, AVG of LT-1 to LT-12",0.18
same,"BSS scoring A (active), Time Bin 19 (90-95 TOTAL)",[1],0 (3×) and 1 (2×) and 2 (5×) and 4 and 5
same,"BSS scoring A (active), Time Bin 20 (95-100 TOTAL)",[1],5 and 0 (5×) and 3 and 4 (3×) and 1 and 2
same,"BSS scoring A (active), Time Bin 21 (100-105 TOTAL)",[1],7 and 0 (6×) and 1 and 5 (3×) and 3
same,"BSS scoring A (active), Time Bin 22 (105-110 TOTAL)",[1],0 (5×) and 1 and 3 (2×) and 5 and 2 (2×) and 8
same,"BSS scoring A (active), Time Bin 23 (110-115 TOTAL)",[1],0 (6×) and 3 (2×) and 5 (2×) and 1 and 6
same,"BSS scoring A (active), Time Bin 24 (115-120 TOTAL)",[1],3 and 0 (3×) and 2 (3×) and 7 (2×) and 1 and 4 (2×)
same,"BSS scoring E (eating/drinking), Time Bin 19 (90-95 TOTAL)",[1],7 (2×) and 8 (2×) and 9 and 6 and 0 and 1 and 5 (3×) and 10
same,"BSS scoring E (eating/drinking), Time Bin 20 (95-100 TOTAL)",[1],4 (3×) and 10 and 5 and 8 (2×) and 9 (2×) and 0 and 7 and 6
same,"BSS scoring E (eating/drinking), Time Bin 21 (100-105 TOTAL)",[1],3 and 10 (2×) and 9 (3×) and 7 (2×) and 0 (2×) and 1 and 2
same,"BSS scoring E (eating/drinking), Time Bin 22 (105-110 TOTAL)",[1],8 and 5 and 7 (3×) and 9 (2×) and 0 (2×) and 3 (2×) and 4
same,"BSS scoring E (eating/drinking), Time Bin 23 (110-115 TOTAL)",[1],10 (3×) and 6 and 0 (2×) and 8 (2×) and 4 and 3 and 5 (2×)
same,"BSS scoring E (eating/drinking), Time Bin 24 (115-120 TOTAL)",[1],6 and 0 (3×) and 8 and 4 (2×) and 7 and 2 (2×) and 1 and 10
same,"BSS scoring G (grooming), Time Bin 19 (90-95 TOTAL)",[1],0 (8×) and 2 (2×) and 1 (2×)
same,"BSS scoring G (grooming), Time Bin 20 (95-100 TOTAL)",[1],0 (8×) and 1 (3×) and 2
same,"BSS scoring G (grooming), Time Bin 21 (100-105 TOTAL)",[1],0 (8×) and 1 and 2 (3×)
same,"BSS scoring G (grooming), Time Bin 22 (105-110 TOTAL)",[1],0 (8×) and 2 (2×) and 1 and 3
same,"BSS scoring G (grooming), Time Bin 23 (110-115 TOTAL)",[1],0 (10×) and 1 (2×)
same,"BSS scoring G (grooming), Time Bin 24 (115-120 TOTAL)",[1],0 (10×) and 1 (2×)
same,"BSS scoring R (resting), Time Bin 19 (90-95 TOTAL)",[1],3 and 0 (5×) and 2 and 1 (3×) and 8 and 6
same,"BSS scoring R (resting), Time Bin 20 (95-100 TOTAL)",[1],1 (4×) and 0 (4×) and 2 (3×) and 8
same,"BSS scoring R (resting), Time Bin 21 (100-105 TOTAL)",[1],0 (5×) and 3 (2×) and 6 and 1 (3×) and 4
same,"BSS scoring R (resting), Time Bin 22 (105-110 TOTAL)",[1],2 (3×) and 0 (2×) and 1 (5×) and 10 and 5
same,"BSS scoring R (resting), Time Bin 23 (110-115 TOTAL)",[1],0 (5×) and 10 and 1 (2×) and 5 (2×) and 2 (2×)
same,"BSS scoring R (resting), Time Bin 24 (115-120 TOTAL)",[1],1 (3×) and 0 (4×) and 2 (2×) and 4 (2×) and 7
same,"BSS scoring A (active), Time Bin 19 (90-95 TOTAL), AVG",[2],0.30
same,"BSS scoring A (active), Time Bin 20 (95-100 TOTAL), AVG",[2],0.13
same,"BSS scoring A (active), Time Bin 21 (100-105 TOTAL), AVG",[2],0.08
same,"BSS scoring A (active), Time Bin 22 (105-110 TOTAL), AVG",[2],0.13
same,"BSS scoring A (active), Time Bin 23 (110-115 TOTAL), AVG",[2],0.21
same,"BSS scoring A (active), Time Bin 24 (115-120 TOTAL), AVG",[2],0.16
same,"BSS scoring E (eating/drinking), Time Bin 19 (90-95 TOTAL), AVG",[2],0.52
same,"BSS scoring E (eating/drinking), Time Bin 20 (95-100 TOTAL), AVG",[2],0.68
same,"BSS scoring E (eating/drinking), Time Bin 21 (100-105 TOTAL), AVG",[2],0.73
same,"BSS scoring E (eating/drinking), Time Bin 22 (105-110 TOTAL), AVG",[2],0.68
same,"BSS scoring E (eating/drinking), Time Bin 23 (110-115 TOTAL), AVG",[2],0.64
same,"BSS scoring E (eating/drinking), Time Bin 24 (115-120 TOTAL), AVG",[2],0.52
same,"BSS scoring G (grooming), Time Bin 19 (90-95 TOTAL), AVG",[2],0.03
same,"BSS scoring G (grooming), Time Bin 20 (95-100 TOTAL), AVG",[2],0.05
same,"BSS scoring G (grooming), Time Bin 21 (100-105 TOTAL), AVG",[2],0.04
same,"BSS scoring G (grooming), Time Bin 22 (105-110 TOTAL), AVG",[2],0.04
same,"BSS scoring G (grooming), Time Bin 23 (110-115 TOTAL), AVG",[2],0.03
same,"BSS scoring G (grooming), Time Bin 24 (115-120 TOTAL), AVG",[2],0.03
same,"BSS scoring R (resting), Time Bin 19 (90-95 TOTAL), AVG",[2],0.15
same,"BSS scoring R (resting), Time Bin 20 (95-100 TOTAL), AVG",[2],0.14
same,"BSS scoring R (resting), Time Bin 21 (100-105 TOTAL), AVG",[2],0.15
same,"BSS scoring R (resting), Time Bin 22 (105-110 TOTAL), AVG",[2],0.15
same,"BSS scoring R (resting), Time Bin 23 (110-115 TOTAL), AVG",[2],0.12
same,"BSS scoring R (resting), Time Bin 24 (115-120 TOTAL), AVG",[2],0.13
same,"BSS scoring A (active), Time Bin 1 (0-5 TOTAL), AVG",[3],0.09
same,"BSS scoring A (active), Time Bin 2 (5-10 TOTAL), AVG",[3],0.04
same,"BSS scoring A (active), Time Bin 3 (10-15 TOTAL), AVG",[3],0.03
same,"BSS scoring A (active), Time Bin 4 (15-20 TOTAL), AVG",[3],0.09
same,"BSS scoring A (active), Time Bin 5 (20-25 TOTAL), AVG",[3],0.08
same,"BSS scoring A (active), Time Bin 6 (25-30 TOTAL), AVG",[3],0.13
same,"BSS scoring E (eating/drinking), Time Bin 1 (0-5 TOTAL), AVG",[3],0.89
same,"BSS scoring E (eating/drinking), Time Bin 2 (5-10 TOTAL), AVG",[3],0.96
same,"BSS scoring E (eating/drinking), Time Bin 3 (10-15 TOTAL), AVG",[3],0.95

# Source: US20250108038A1 (priority 2023, published 2025)
